Type in all cases: biochemical
The target in assay [1] is T1, recombinant human DAO (diamine oxidase) (Homo sapiens, UniProt P19801).
T1 construct: purchased R&D systems
T1 sequence (P19801 20-751): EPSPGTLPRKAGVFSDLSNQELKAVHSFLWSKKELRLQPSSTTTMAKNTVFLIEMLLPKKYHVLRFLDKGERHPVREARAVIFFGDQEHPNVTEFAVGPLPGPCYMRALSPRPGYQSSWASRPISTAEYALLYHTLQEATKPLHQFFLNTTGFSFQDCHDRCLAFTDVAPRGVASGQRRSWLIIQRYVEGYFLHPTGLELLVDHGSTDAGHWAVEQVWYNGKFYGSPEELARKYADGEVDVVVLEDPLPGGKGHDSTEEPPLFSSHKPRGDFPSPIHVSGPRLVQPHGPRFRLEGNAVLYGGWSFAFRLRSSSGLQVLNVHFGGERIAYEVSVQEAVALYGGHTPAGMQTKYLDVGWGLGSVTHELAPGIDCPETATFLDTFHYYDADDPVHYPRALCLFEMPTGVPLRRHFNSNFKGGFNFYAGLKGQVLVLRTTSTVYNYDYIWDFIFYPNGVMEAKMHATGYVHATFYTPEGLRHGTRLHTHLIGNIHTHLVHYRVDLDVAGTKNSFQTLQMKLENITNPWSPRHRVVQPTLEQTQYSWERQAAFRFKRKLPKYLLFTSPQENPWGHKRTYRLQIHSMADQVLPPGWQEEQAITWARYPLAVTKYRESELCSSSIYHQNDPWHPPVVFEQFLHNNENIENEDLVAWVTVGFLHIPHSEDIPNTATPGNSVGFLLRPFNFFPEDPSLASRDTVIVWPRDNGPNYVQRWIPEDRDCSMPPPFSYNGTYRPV
Briefly: Activity evaluation on recombinant human DAO (Amplex Red/HRP-coupled assay, 1 mM putrescine substrate). The settings on record: read-out: Inhibitory Activity (IC50, nM) DAO. The method in brief: (§1)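 Each oxidase is tested with its own substrate: MAO-A with 0.5 mM tyramine, MAO-B with 1 mM benzylamine, DAO with 1 mM putrescine. After 30 min enzyme-compound preincubation at 37 °C, Amplex Red (200 uM) plus HRP (1 U/mL) reports H2O2 as fluorescence; IC50 is fitted from eight-point curves.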

Assay [2] addresses T2, recombinant human MAO-A (monoamine oxidase-A) (Homo sapiens, UniProt P21397).
T2 construct: purchased Sigma-Aldrich
T2 sequence (P21397 1-527): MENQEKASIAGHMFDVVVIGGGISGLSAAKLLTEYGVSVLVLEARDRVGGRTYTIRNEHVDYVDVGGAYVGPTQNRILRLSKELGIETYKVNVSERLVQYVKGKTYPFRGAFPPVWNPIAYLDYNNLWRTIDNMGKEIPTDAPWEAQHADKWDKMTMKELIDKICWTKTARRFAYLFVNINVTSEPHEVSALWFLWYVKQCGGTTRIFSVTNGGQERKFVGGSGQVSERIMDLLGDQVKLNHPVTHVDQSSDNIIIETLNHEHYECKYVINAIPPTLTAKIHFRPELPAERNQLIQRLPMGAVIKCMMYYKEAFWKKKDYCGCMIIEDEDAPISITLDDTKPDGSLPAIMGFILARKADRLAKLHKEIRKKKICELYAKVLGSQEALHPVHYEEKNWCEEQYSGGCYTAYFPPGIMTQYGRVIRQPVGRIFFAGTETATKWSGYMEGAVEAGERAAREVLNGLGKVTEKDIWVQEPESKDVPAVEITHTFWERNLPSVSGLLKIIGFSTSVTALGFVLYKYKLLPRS
As to the kind of experiment: Activity evaluation on recombinant human MAO-A (Amplex Red/HRP-coupled assay, 0.5 mM tyramine substrate). As to conditions: read-out: Inhibitory Activity (IC50, nM) MAO-A. An outline of the steps: as §1

In the next assay the target is T3, recombinant human VAP-1 (Homo sapiens, UniProt Q16853).
T3 construct: purchased R&D systems
T3 sequence (Q16853 1-763): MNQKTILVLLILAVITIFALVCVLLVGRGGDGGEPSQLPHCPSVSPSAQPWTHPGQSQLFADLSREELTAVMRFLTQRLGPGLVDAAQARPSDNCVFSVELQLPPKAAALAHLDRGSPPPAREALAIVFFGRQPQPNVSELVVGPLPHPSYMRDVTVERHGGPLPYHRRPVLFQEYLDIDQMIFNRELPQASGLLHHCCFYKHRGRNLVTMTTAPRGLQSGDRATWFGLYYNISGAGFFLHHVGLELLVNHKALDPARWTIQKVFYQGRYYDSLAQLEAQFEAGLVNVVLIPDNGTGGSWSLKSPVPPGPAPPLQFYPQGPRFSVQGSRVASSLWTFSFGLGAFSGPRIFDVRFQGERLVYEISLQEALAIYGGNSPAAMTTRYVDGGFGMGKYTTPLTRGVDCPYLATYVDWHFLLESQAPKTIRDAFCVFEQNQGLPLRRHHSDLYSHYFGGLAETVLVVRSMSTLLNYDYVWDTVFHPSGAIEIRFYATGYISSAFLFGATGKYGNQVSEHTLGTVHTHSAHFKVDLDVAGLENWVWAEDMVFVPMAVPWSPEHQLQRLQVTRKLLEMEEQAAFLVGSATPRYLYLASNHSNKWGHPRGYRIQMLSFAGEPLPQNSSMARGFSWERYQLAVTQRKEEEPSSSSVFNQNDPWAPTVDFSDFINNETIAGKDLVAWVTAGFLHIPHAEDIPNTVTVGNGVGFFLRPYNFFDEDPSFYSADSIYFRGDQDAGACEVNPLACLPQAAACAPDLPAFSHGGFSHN
As to the kind of experiment: Activity evaluation on recombinant human VAP-1 (Amplex Red/HRP-coupled hydrogen peroxide assay, benzylamine substrate). The settings on record: read-out: Inhibitory Activity (IC50, nM) human VAP-1. An outline of the steps:
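Hydrogen peroxide from benzylamine (1 mM) oxidation by human recombinant VAP-1 detected via HRP-coupled Amplex Red (200 uM) fluorescence, kinetic over 1–2 h. Enzyme and compound preincubated 30 min at 37 °C, pH 7.4 phosphate; 8-point dose response, signal-rate decrease versus DMSO control fitted to four-parameter logistic for IC50.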

The target in assay [3] is T4, recombinant human MAO-B (monoamine oxidase-B) (Homo sapiens, UniProt P27338).
T4 construct: purchased Sigma-Aldrich
T4 sequence (P27338 1-520): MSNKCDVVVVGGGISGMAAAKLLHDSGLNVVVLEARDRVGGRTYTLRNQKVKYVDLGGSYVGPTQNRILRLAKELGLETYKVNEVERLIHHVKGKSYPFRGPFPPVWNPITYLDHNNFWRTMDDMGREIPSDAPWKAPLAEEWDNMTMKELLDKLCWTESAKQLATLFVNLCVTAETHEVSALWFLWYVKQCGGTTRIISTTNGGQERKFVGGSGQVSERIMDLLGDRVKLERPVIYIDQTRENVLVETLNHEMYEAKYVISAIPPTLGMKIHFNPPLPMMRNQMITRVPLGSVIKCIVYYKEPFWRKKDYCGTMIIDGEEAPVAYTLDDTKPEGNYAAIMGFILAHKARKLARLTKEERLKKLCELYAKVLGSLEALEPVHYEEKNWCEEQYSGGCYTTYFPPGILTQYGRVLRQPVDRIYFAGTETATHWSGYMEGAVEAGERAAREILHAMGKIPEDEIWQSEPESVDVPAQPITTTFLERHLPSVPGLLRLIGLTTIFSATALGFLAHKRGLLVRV
As to the kind of experiment: Activity evaluation on recombinant human MAO-B (Amplex Red/HRP-coupled assay, 1 mM benzylamine substrate). As to conditions: read-out: Inhibitory Activity (IC50, nM) MAO-B. The method in brief: as §1

Setting [4] is: recombinant human VAP-1, benzylamine substrate.
[5] abbreviates: recombinant human VAP-1, 30 min preincubation at 37° C., 1 mM benzylamine.

Structures can show the parent of a compound that is named as a salt. Where two headings read alike, the source gives them in different places.

By IC50 is commonly meant the concentration needed to halve the response being measured.

`CS(=O)(=O)c1ccc(-c2ccccc2Cn2cnn(CC(CN)=C(F)F)c2=O)cc1` [Example 279, 2-[2-(aminomethyl)-3,3-difluoro-allyl]-4-[[2-(4-methylsulfonylphenyl)phenyl]methyl]-1,2,4-triazol-3-one Trifluoroacetate]: the IC50 in assay [1] (1 mM putrescine substrate) is over 100000 nM; in assay [2] (0.5 mM tyramine substrate), over 100000 nM; on recombinant human VAP-1 (setting [4]), over 100 nM; in assay [3] (1 mM benzylamine substrate), over 100000 nM.

For the compound `Cc1cc(-c2ccc(C(F)(F)F)nc2)cnc1-n1cnn(CC(CN)=C(F)F)c1=O` [Example 70, 2-[2-(aminomethyl)-3,3-difluoro-allyl]-4-[3-methyl-5-[6-(trifluoromethyl)-3-pyridyl]-2-pyridyl]-1,2,4-triazol-3-one Trifluoroacetate], the 50% inhibitory concentration (IC50) was 1500 nM in assay [1] (1 mM putrescine), over 100000 nM in assay [2] (0.5 mM tyramine), 0.7 nM on recombinant human VAP-1 (setting [5]) and 5800 nM in assay [3] (1 mM benzylamine).

With `CS(=O)(=O)c1ccc(-c2ccc(-n3cnn(CC(CN)=C(F)F)c3=O)cn2)cc1` [Example 38, 2-[2-(aminomethyl)-3,3-difluoro-allyl]-4-[6-(4-methylsulfonylphenyl)-3-pyridyl]-1,2,4-triazol-3-one Trifluoroacetate], the IC50 in assay [1] (1 mM putrescine) is 24 nM; in assay [2] (0.5 mM tyramine), over 100000 nM; on recombinant human VAP-1 (setting [5]) it was 0.4 nM; in assay [3] (1 mM benzylamine) it was 450 nM.

For the compound `NCC(Cn1ncn(-c2ccc(F)cc2)c1=O)=C(F)F` [Example 1, 2-[2-(aminomethyl)-3,3-difluoro-allyl]-4-(4-fluorophenyl)-1,2,4-triazol-3-one Trifluoroacetate], the IC50 is over 10000 nM in assay [1] (1 mM putrescine), over 100000 nM in assay [2] (0.5 mM tyramine), 2 nM on recombinant human VAP-1 (setting [5]) and 39000 nM in assay [3] (1 mM benzylamine).

In the case of `NCC(Cn1ncn(-c2cccc(Br)n2)c1=O)=C(F)F` [Example 8, 2-[2-(aminomethyl)-3,3-difluoro-allyl]-4-(6-bromo-2-pyridyl)-1,2,4-triazol-3-one Trifluoroacetate], the IC50 was 10500 nM in assay [1] (1 mM putrescine), over 100000 nM in assay [2] (0.5 mM tyramine), 2.2 nM at recombinant human VAP-1 (setting [5]) and over 100000 nM in assay [3] (1 mM benzylamine).

Regarding `CN1C(=O)CCc2cc(-c3cccc(-n4cnn(CC(CN)=C(F)F)c4=O)n3)ccc21` [Example 52, 6-[6-[1-[2-(aminomethyl)-3,3-difluoro-allyl]-5-oxo-1,2,4-triazol-4-yl]-2-pyridyl]-1-methyl-3,4-dihydroquinolin-2-one Trifluoroacetate], the IC50 in assay [1] (1 mM putrescine) was 300 nM; in assay [2] (0.5 mM tyramine) it was over 100000 nM; on recombinant human VAP-1 (setting [5]) it was 0.9 nM; in assay [3] (1 mM benzylamine), 23000 nM.

Consider `Cc1cc(-c2cc(-n3cnn(CC(CN)=C(F)F)c3=O)ccn2)cc2c1NC(=O)CC2` [Example 65, 6-[4-[1-[2-(aminomethyl)-3,3-difluoro-allyl]-5-oxo-1,2,4-triazol-4-yl]-2-pyridyl]-8-methyl-3,4-dihydro-1H-quinolin-2-one Trifluoroacetate], for which the IC50 in assay [1] (1 mM putrescine) was 290 nM; in assay [2] (0.5 mM tyramine) it was over 100000 nM; at recombinant human VAP-1 (setting [5]), 0.3 nM; in assay [3] (1 mM benzylamine) it was 12000 nM.

For the compound `CS(=O)(=O)c1ccc(-c2cnc(-n3cnn(CC(CN)=C(F)F)c3=O)c(F)c2)cc1` [Example 82, 2-[2-(aminomethyl)-3,3-difluoro-allyl]-4-[3-fluoro-5-(4-methylsulfonylphenyl)-2-pyridyl]-1,2,4-triazol-3-one Trifluoroacetate], the IC50 in assay [1] (1 mM putrescine) is 13 nM; in assay [2] (0.5 mM tyramine), over 100000 nM; on recombinant human VAP-1 (setting [5]) it was 0.1 nM; in assay [3] (1 mM benzylamine), 3700 nM.

For `NCC(Cn1ncn(Cc2ccc(-c3cnn(Cc4ccccc4)c3)s2)c1=O)=C(F)F` [Example 297, 2-[2-(aminomethyl)-3,3-difluoro-allyl]-4-[[5-(1-benzylpyrazol-4-yl)-2-thienyl]methyl]-1,2,4-triazol-3-one Trifluoroacetate], the IC50 is 14800 nM in assay [1] (1 mM putrescine substrate), over 100000 nM in assay [2] (0.5 mM tyramine substrate), 1.9 nM at recombinant human VAP-1 (setting [4]) and over 100000 nM in assay [3] (1 mM benzylamine substrate).

Turning to `Cc1cc(-c2ccc(N3CCCC3=O)cc2)cnc1-n1cnn(CC(CN)=C(F)F)c1=O` [Example 230, 2-[2-(aminomethyl)-3,3-difluoro-allyl]-4-[3-methyl-5-[4-(2-oxopyrrolidin-1-yl)phenyl]-2-pyridyl]-1,2,4-triazol-3-one Trifluoroacetate], the IC50 in assay [1] (1 mM putrescine substrate) is 24000 nM; in assay [2] (0.5 mM tyramine substrate), over 100000 nM; at recombinant human VAP-1 (setting [4]), 0.7 nM; in assay [3] (1 mM benzylamine substrate) it was 77000 nM.

For the compound `NCC(Cn1ncn(-c2cccc(-c3ccc(N4CCNCC4)cc3)n2)c1=O)=C(F)F` [Example 47, 2-[2-(aminomethyl)-3,3-difluoro-allyl]-4-[6-(4-piperazin-1-ylphenyl)-2-pyridyl]-1,2,4-triazol-3-one Ditrifluoroacetate], the IC50 in assay [1] (1 mM putrescine) is 1900 nM; in assay [2] (0.5 mM tyramine) it was over 100000 nM; at recombinant human VAP-1 (setting [5]) it was 3.5 nM; in assay [3] (1 mM benzylamine) it was over 100000 nM.

The values above are taken from patent US11168073B2, “3,3-difluoroallylamines or salts thereof and pharmaceutical compositions comprising the same” (YUHAN CORPORATION, priority 2018, dated 2021).
